# According to US3984547A, “Veterinary feedstuffs” (Bayer Aktiengesellschaft, priority 1971, dated 1976):
# Read-outs that look alike come from different tables or passages of the source.
# What was measured:
# Escherichia coli C 165 [1] = test: ED100 in mice after intraperitoneal infection, Table 3; assay type: in vivo; conditions: read-out: effective 100% dose (ED100)
# Method: (§1) In animal experiments on mice, the effective 100% dose (ED100) in mg/Kg was determined for certain compounds of the invention after intraperitoneal infection and subcutaneous (s.c.) or oral (p.o.) administration of the preparation.
# Proteus mirabilis 2935 = test: MIC, series dilution test (complete medium), Table 2; assay type: cell-based; conditions: 37° C, 18, 24 and 48 h, read-out: Minimum inhibitory concentration (MIC)
# Method: (§2) Minimum inhibitory concentration (MIC) in γ/ml of medium, measured by the series dilution test (complete medium), incubation temperatures: 37° C, determination of the MIC after 18, 24 and 48 hours.
# Escherichia coli A 261 [2] = test: as above; assay type: cell-based; conditions: A261, 37° C, 18, 24 and 48 h, read-out: Minimum inhibitory concentration (MIC)
# Method: as §2
# [3] = test system: Neisseria catharalis N 1/41; test: as above; assay type: cell-based; conditions: N1/41, 37° C, 18, 24 and 48 h, read-out: Minimum inhibitory concentration (MIC)
# Method: as §2
# Klebsiella ATCC 10031 = test: as above; assay type: cell-based; conditions: ATCC10031, 37° C, 18, 24 and 48 h, read-out: Minimum inhibitory concentration (MIC)
# Method: as §2
# [4] = test system: Corynebacterium diphteriae gravis; test: as above; assay type: cell-based; conditions: 37° C, 18, 24 and 48 h, read-out: Minimum inhibitory concentration (MIC)
# Method: as §2
# [5] = test system: Streptococcus faecalis ATCC 8580; test: as above; assay type: cell-based; conditions: Enterococcus faecalis, ATCC8580, 37° C, 18, 24 and 48 h, read-out: Minimum inhibitory concentration (MIC)
# Method: as §2
# [6] = test system: Streptococcus faecalis ATCC liquef.; test: as above; assay type: cell-based; conditions: Enterococcus faecalis, 37° C, 18, 24 and 48 h, read-out: Minimum inhibitory concentration (MIC)
# Method: as §2
# [7] = test system: Streptococcus faecalis ATCC 9700; test: as above; assay type: cell-based; conditions: Enterococcus faecalis, ATCC9700, 37° C, 18, 24 and 48 h, read-out: Minimum inhibitory concentration (MIC)
# Method: as §2
# Proteus mirabilis G = test: as above; assay type: cell-based; conditions: 37° C, 18, 24 and 48 h, read-out: Minimum inhibitory concentration (MIC)
# Method: as §2
# [8] = test system: Streptococcus faecalis ATCC 13; test: as above; assay type: cell-based; conditions: Enterococcus faecalis, ATCC13, 37° C, 18, 24 and 48 h, read-out: Minimum inhibitory concentration (MIC)
# Method: as §2
# Proteus vulgaris 3400 = test: as above; assay type: cell-based; conditions: 37° C, 18, 24 and 48 h, read-out: Minimum inhibitory concentration (MIC)
# Method: as §2
# Proteus vulgaris 1017 = test: as above; assay type: cell-based; conditions: 37° C, 18, 24 and 48 h, read-out: Minimum inhibitory concentration (MIC)
# Method: as §2
# Escherichia coli 14 = test: as above; assay type: cell-based; conditions: 37° C, 18, 24 and 48 h, read-out: Minimum inhibitory concentration (MIC)
# Method: as §2
# Escherichia coli 183/58 = test: as above; assay type: cell-based; conditions: 37° C, 18, 24 and 48 h, read-out: Minimum inhibitory concentration (MIC)
# Method: as §2
# Escherichia coli 55 B 5 = test: as above; assay type: cell-based; conditions: 55B5, 37° C, 18, 24 and 48 h, read-out: Minimum inhibitory concentration (MIC)
# Method: as §2
# Klebsiella K 10 = test: as above; assay type: cell-based; conditions: K10, 37° C, 18, 24 and 48 h, read-out: Minimum inhibitory concentration (MIC)
# Method: as §2
# Escherichia coli 2 = test: as above; assay type: cell-based; conditions: 37° C, 18, 24 and 48 h, read-out: Minimum inhibitory concentration (MIC)
# Method: as §2
# Pseudomonas aeruginosa B = test: as above; assay type: cell-based; conditions: 37° C, 18, 24 and 48 h, read-out: Minimum inhibitory concentration (MIC)
# Method: as §2
# Pseudomonas aeruginosa M = test: as above; assay type: cell-based; conditions: 37° C, 18, 24 and 48 h, read-out: Minimum inhibitory concentration (MIC)
# Method: as §2
# [9] = test system: Mycobacterium tuberculosis H 37 RV; test: as above; assay type: cell-based; conditions: H37RV, 37° C, 18, 24 and 48 h, read-out: Minimum inhibitory concentration (MIC)
# Method: as §2
# [10] = test system: Streptococcus faecalis ATCC durans; test: as above; assay type: cell-based; conditions: Enterococcus faecalis, 37° C, 18, 24 and 48 h, read-out: Minimum inhibitory concentration (MIC)
# Method: as §2
# [11] = test system: Salmonella paratyphii BB II; test: as above; assay type: cell-based; conditions: 37° C, 18, 24 and 48 h, read-out: Minimum inhibitory concentration (MIC)
# Method: as §2
# [12] = test system: Streptococcus faecalis ATCC species; test: as above; assay type: cell-based; conditions: Enterococcus faecalis, 37° C, 18, 24 and 48 h, read-out: Minimum inhibitory concentration (MIC)
# Method: as §2
# [13] = test system: Streptococcus faecalis ATCC B. H.; test: as above; assay type: cell-based; conditions: Enterococcus faecalis, 37° C, 18, 24 and 48 h, read-out: Minimum inhibitory concentration (MIC)
# Method: as §2
# Pseudomonas aeruginosa W = test: as above; assay type: cell-based; conditions: 37° C, 18, 24 and 48 h, read-out: Minimum inhibitory concentration (MIC)
# Method: as §2
# [14] = test system: Streptococcus faecalis ATCC 8711; test: as above; assay type: cell-based; conditions: Enterococcus faecalis, ATCC8711, 37° C, 18, 24 and 48 h, read-out: Minimum inhibitory concentration (MIC)
# Method: as §2
# [15] = test system: Streptococcus faecalis ATCC 8698; test: as above; assay type: cell-based; conditions: Enterococcus faecalis, ATCC8698, 37° C, 18, 24 and 48 h, read-out: Minimum inhibitory concentration (MIC)
# Method: as §2
# [16] = test system: Staphylococcus aureus 133; test: as above; assay type: cell-based; conditions: 37° C, 18, 24 and 48 h, read-out: Minimum inhibitory concentration (MIC)
# Method: as §2
# Escherichia coli C 165 [17] = test: as above; assay type: cell-based; conditions: C165, 37° C, 18, 24 and 48 h, read-out: Minimum inhibitory concentration (MIC)
# Method: as §2
# [18] = test system: Streptococcus faecalis ATCC 8564; test: as above; assay type: cell-based; conditions: Enterococcus faecalis, ATCC8564, 37° C, 18, 24 and 48 h, read-out: Minimum inhibitory concentration (MIC)
# Method: as §2
# [19] = test system: Streptococcus faecalis ATCC 8699; test: as above; assay type: cell-based; conditions: Enterococcus faecalis, ATCC8699, 37° C, 18, 24 and 48 h, read-out: Minimum inhibitory concentration (MIC)
# Method: as §2
# [20] = test system: Staphylococcus aureus BRL; test: as above; assay type: cell-based; conditions: 37° C, 18, 24 and 48 h, read-out: Minimum inhibitory concentration (MIC)
# Method: as §2
# Mycoplasma gallisepticum [21] = test: as above; assay type: cell-based; conditions: Mycoplasmoides gallisepticum, 37° C, 18, 24 and 48 h, read-out: Minimum inhibitory concentration (MIC)
# Method: as §2
# [22] = test system: Staphylococcus aureus 7705; test: as above; assay type: cell-based; conditions: 37° C, 18, 24 and 48 h, read-out: Minimum inhibitory concentration (MIC)
# Method: as §2
# Klebsiella 63 = test: as above; assay type: cell-based; conditions: 37° C, 18, 24 and 48 h, read-out: Minimum inhibitory concentration (MIC)
# Method: as §2
# [23] = test system: Streptococcus faecalis ATCC Blaschke; test: as above; assay type: cell-based; conditions: Enterococcus faecalis, 37° C, 18, 24 and 48 h, read-out: Minimum inhibitory concentration (MIC)
# Method: as §2
# [24] = test system: Kletosiella pneumonia 8085; test: MIC in vitro, plate test (agar), Table 1; assay type: cell-based; conditions: about 37° C, readings 24 and 48 h
# Method: (§3) The minimum inhibitory concentrations in vitro for some of the new compounds shown in Table 1 (MIC) were determined by the plate test in an agar medium of the following composition: |proteose peptone 10.0 g per liter |5.1 × 10^3 germs were inoculated per plate. […]. Readings were taken after 24 and 48 hours, and the incubation temperature was about 37° C.
# Escherichia coli A 261 [25] = test: MIC in vitro, plate test (agar), Table 1; assay type: cell-based; conditions: A261, about 37° C, readings 24 and 48 h
# Method: as §3
# Proteus vulgaris species = test: MIC in vitro, plate test (agar), Table 1; assay type: cell-based; conditions: about 37° C, readings 24 and 48 h
# Method: as §3
# Streptococcus pyogenes W = test: MIC in vitro, plate test (agar), Table 1; assay type: cell-based; conditions: about 37° C, readings 24 and 48 h
# Method: as §3
# [26] = test system: Pseudomonas aeruginosa Walter; test: MIC in vitro, plate test (agar), Table 1; assay type: cell-based; conditions: about 37° C, readings 24 and 48 h
# Method: as §3
# Klebsiella pneumonia 63 = test: MIC in vitro, plate test (agar), Table 1; assay type: cell-based; conditions: Klebsiella pneumoniae, about 37° C, readings 24 and 48 h
# Method: as §3
# [27] = test system: Pseudomonas aeruginosa Bonn; test: MIC in vitro, plate test (agar), Table 1; assay type: cell-based; conditions: about 37° C, readings 24 and 48 h
# Method: as §3
# [28] = test system: Staphylococcus aureus 133; test: MIC in vitro, plate test (agar), Table 1; assay type: cell-based; conditions: about 37° C, readings 24 and 48 h
# Method: as §3
# Escherichia coli C 165 [29] = test: MIC in vitro, plate test (agar), Table 1; assay type: cell-based; conditions: C165, about 37° C, readings 24 and 48 h
# Method: as §3
# [30] = test system: Staphylococcus aureus 133; test: ED100 in mice after intraperitoneal infection, Table 3; assay type: in vivo; conditions: read-out: effective 100% dose (ED100)
# Method: as §1
# Mycoplasma gallisepticum [31] = test: MIC, series dilution test, measured in a PPLO medium, Table 2; assay type: cell-based; conditions: Mycoplasmoides gallisepticum, 37° C, 18, 24 and 48 h, read-out: Minimum inhibitory concentration (MIC)
# Method: as §2
# (§4) *)measured in a PPLO medium
# Mycoplasma granularum = test: as above; assay type: cell-based; conditions: Acholeplasma granularum, 37° C, 18, 24 and 48 h, read-out: Minimum inhibitory concentration (MIC)
# Method: as §2, §4
structure (smiles),measurement,setting,value
O=C(O)c1c(C=NCCO)[n+]([O-])c2ccccc2[n+]1[O-] [Example 8],ED100,"Escherichia coli C 165 [1]; C165, oral (p.c. [sic])",100 mg/kg
same,ED100,"Escherichia coli C 165 [1]; C165, sc, s.c.",50 mg/kg
COC(=O)NN=Cc1c(C(=O)O)[n+]([O-])c2ccccc2[n+]1[O-] [Example 13],MIC,Proteus mirabilis 2935,12 µg/mL
same,MIC,Escherichia coli A 261 [2],25 to 50 µg/mL
same,MIC,[3],6 µg/mL
same,MIC,Klebsiella ATCC 10031,1 to 2 µg/mL
same,MIC,[4],5 to 10 µg/mL
same,MIC,[5],50 µg/mL
same,MIC,[6],50 µg/mL
same,MIC,[7],50 µg/mL
same,MIC,Proteus mirabilis G,12 µg/mL
same,MIC,[8],25 µg/mL
same,MIC,Proteus vulgaris 3400,50 µg/mL
same,MIC,Proteus vulgaris 1017,17 µg/mL
same,MIC,Escherichia coli 14,12 to 25 µg/mL
same,MIC,Escherichia coli 183/58,6 to 12 µg/mL
same,MIC,Escherichia coli 55 B 5,3 to 6 µg/mL
same,MIC,Klebsiella K 10,50 µg/mL
same,MIC,Escherichia coli 2,25 to 50 µg/mL
same,MIC,Pseudomonas aeruginosa B,25 µg/mL
same,MIC,Pseudomonas aeruginosa M,25 µg/mL
same,MIC,[9],40 µg/mL
same,MIC,[10],25 µg/mL
same,MIC,[11],12 µg/mL
same,MIC,[12],100 µg/mL
same,MIC,[13],100 µg/mL
same,MIC,Pseudomonas aeruginosa W,400 µg/mL
same,MIC,[14],50 µg/mL
same,MIC,[15],100 µg/mL
same,MIC,[16],1 µg/mL
same,MIC,Escherichia coli C 165 [17],50 to 100 µg/mL
same,MIC,[18],100 µg/mL
same,MIC,[19],100 µg/mL
same,MIC,[20],12 µg/mL
same,MIC,Mycoplasma gallisepticum [21],6 µg/mL
same,MIC,[22],12 µg/mL
same,MIC,Klebsiella 63,50 µg/mL
same,MIC,[23],6 to 25 µg/mL
same,MIC,[24],20 µg/mL
same,MIC,Escherichia coli A 261 [25],20 µg/mL
same,MIC,Proteus vulgaris species,10 µg/mL
same,MIC,Streptococcus pyogenes W,100 µg/mL
same,MIC,[26],100 µg/mL
same,MIC,Klebsiella pneumonia 63,100 µg/mL
same,MIC,[27],100 µg/mL
same,MIC,[28],10 µg/mL
same,MIC,Escherichia coli C 165 [29],50 µg/mL
same,ED100,"[30]; Staphylococcus aureus, 133, oral (p.c. [sic])",50 mg/kg
same,ED100,"[30]; Staphylococcus aureus, 133, sc, s.c.",25 mg/kg
same,ED100,"Escherichia coli C 165 [1]; C165, oral (p.c. [sic])",25 mg/kg
same,ED100,"Escherichia coli C 165 [1]; C165, sc, s.c.",25 mg/kg
same,MIC,Mycoplasma gallisepticum [31],6 µg/mL
same,MIC,Mycoplasma granularum,3 µg/mL
NN=Cc1c(C(=O)O)[n+]([O-])c2ccccc2[n+]1[O-] [Example 10],MIC,[27],100 µg/mL
